The conditions of series [1]: cited from earlier work.
The conditions of series [2]: cited from earlier work. This is another data set of the same source.
The conditions of series [3]: cited from earlier work. The source holds these as a separate data set.
The next series concerns intestinal sucrase. The settings on record: porcine intestinal mucosa, in vitro; cited from earlier work.
The conditions of series [4]: cited from earlier work. This is another data set of the same source.
For series [5] the following is noted: acute (test meal) and sub chronic (twice a day for 9 week), after sucrose feeding; cited from earlier work.
The conditions of series [6]: healthy and type 2 diabetic subjects, sucrose with 4% added L-Arabinose; cited from earlier work.
For series [7] the following is noted: rats, HCHF diet; cited from earlier work.
The conditions of series [8]: humans, after six months; cited from earlier work.
For series [9] the following is noted: blood plasma testing; cited from earlier work.
The conditions of series [10]: alone or in combination with fructose, compared with glucose alone; cited from earlier work.
For series [11] the following is noted: HFD-fed mice; cited from earlier work.
For series [12] the following is noted: pre-exercise ingestion; cited from earlier work.
The conditions of series [13]: continuous intravenous, 1 g/kg body weight, human subjects; cited from earlier work.
Series [14] in a line: In vivo study: test beverage, postprandial glucose and insulin responses. Also on record: species or system people. The settings on record: versus 25 g sucrose control, p=0.0001. On the procedure: FIGS. 3 and 4 represent the outcome of an in vivo study performed using 15 previously selected people. Selected subjects arrived at the labs between 8 am and 9:45 am, and the start time for each subject was kept as similar as possible. After being weighed, 2 fasting blood samples at 5 min intervals were collected; subjects started to consume a test beverage (sweetener mixed with water) which was consumed in its entirety within 5 min. A timer was started at the first sip of the beverage, and further capillary blood samples were obtained at t=15, 30, 45, 60, 90 and 120±2 min, for the determination of glucose and insulin concentrations. Blood samples were collected into 2 separate vials: one (2-3 drops blood) for glucose analysis and the other (8-10 drops of blood) for insulin. Before and during the test, a blood glucose test record was filled out with the subject's initials, ID number, date, body weight, test meal, time of starting to eat, time it took to eat, time and composition of last meal, and any unusual activities. At the beginning and end, participants were asked to fill out a symptom questionnaire. During the 2 hours of the test, participants remain seated quietly. After the last blood sample was obtained participants were offered a snack and allowed to leave. […]

[15] abbreviates: sucrose in combination with L-Arabinose versus sucrose.
Setting [16] is: oral 15, 35 or 75 g in 250 ml, versus water alone.

The values below come from patent publication US20170251707A1, “PROCESS FOR THE PRODUCTION OF LOW COLORIE SWEETENER COMPOSITIONS AND USES THEREOF” (priority 2016, published 2017).

Read-outs that look alike come from different tables or passages of the source.

Take `O=C[C@H](O)[C@@H](O)[C@H](O)[C@H](O)CO` [D-glucose, reference compound]: in series [1] (oral 15 or 75 g in 250 ml), the “incremental area under the glucose response curve (AUC)” value was “significant dose-dependent increase” and the “incremental area under the insulin response curve (AUC)” value is “significant dose-dependent increase”. Besides, the “reduction in blood glucose levels” value in series [2] (after 180 minute) is 20%. Besides, the “increment / elevation of blood glucose levels” value in series [2] (healthy human subjects) is listed as 52%.

As for `OC[C@@H](O)[C@@H](O)CO` [Erythritol, (2R,3S)-butane-1,2,3,4-tetraol], the excretion result in series [3] (human metabolism, for the most part) is “excreted unchanged in the urine”. The absorption entry in series [3] (human metabolism) is reported as “absorbed into the bloodstream in the small intestine”. In series [3] (in vivo), the “increases in blood sugar levels” value is on record as “does not induce increases”, the laxative effects entry is reported as “does not normally cause laxative effects” and the tooth decay result is reported as “does not cause”. Besides, in [3] (unlike other sugar alcohols), the gastric side effects entry is on record as “unlikely to cause”.

In the case of `O=C[C@H](O)[C@@H](O)[C@@H](O)CO` [L-Arabinose], in the series with intestinal sucrase, the “effect on intestinal sucrase activity” value is listed as “inhibitory effect”. Moreover, in series [4] (rats fed with sucrose, additional feeding of L-Arabinose), the liver triacylglycerol concentrations result is given as “prevented this increase”. Besides, in series [4] (setting [15]), the blood glucose response result is given as “suppressed” and the insulin response entry is on record as “suppressed”. In addition, the blood glucose entry in series [5] is “suppressed”. For the same compound, in series [6], the “increases in plasma glucose” value is recorded as “reduced” and the “increases in serum insulin” value is on record as “reduced”. Also, in series [7], the “body weight, lee's index, visceral index” value is on record as “lower”; the “dyslipidemia, insulin resistance, inflammation, and viscera function” value was “improve”. In series [8], the diastolic blood pressure entry is given as “slightly decreased”; the high-density lipoprotein cholesterol entry is “slightly increased”; the “waist circumference, total cholesterol, fasting glucose, serum uric acid, low-density lipoprotein cholesterol” value is given as “decreased”.

As to `OC[C@H]1O[C@H](O[C@H]2O[C@H](CO)[C@@H](O)[C@H](O)[C@H]2O)[C@H](O)[C@@H](O)[C@@H]1O` [Trehalose], in [9], the “influence on blood glucose levels” value was “almost flat response”. Moreover, in [10], the glycemic response result is reported as “lower” and the insulinemic response entry is “lower”. Further, in [11], the adipocyte hypertrophy result was “prevents” and the insulin resistance result is recorded as “mitigates”. In addition, in [12], the “insulin response prior to exercise” value is reported as “lower”, the “plasma glucose response prior to exercise” value is given as “lower” and the “prevalence of rebound hypoglycemia” value is recorded as “reduced”.

Consider `O=C[C@H](O)[C@@H](O)[C@@H](O)[C@H](O)CO` [galactose, reference compound], for which, in series [12], the “insulin response prior to exercise” value was “lower”, the “plasma glucose response prior to exercise” value was “lower” and the “prevalence of rebound hypoglycemia” value is listed as “reduced”.

As for `OCC(O)CO` [glycerol], the serum insulin concentration result in [13] is listed as “did not result in an increased”. Besides, in series [1] (setting [16]), the insulin response result is “did not differ significantly from those after water alone” and the plasma glucose response entry is on record as “did not differ significantly from those after water alone”.

In the case of `OC[C@H]1O[C@H](O[C@]2(CCl)O[C@H](CCl)[C@@H](O)[C@@H]2O)[C@H](O)[C@@H](O)[C@H]1Cl` [sucralose], in series [14], the “postprandial insulin responses (FIG. 5)” value is on record as “significantly lower than sucrose”.
